Experimental data: patent US20250144049A1, “METHODS, COMPOSITIONS, AND USES RELATED TO THE TREATMENT AND PREVENTION OF LEIGH SYNDROME” (Stealth BioTherapeutics Inc., priority 2023, published 2025)

How the values were obtained:
[1] = system: rotenone-inhibited Complex I; assay: Complex I-bypass assay (high-resolution respirometry, O2 consumption); type: cell-based, human; conditions: titrated into rotenone-inhibited Leigh fibroblasts, n=6
Protocol: All high-resolution respirometry experiments were conducted using the Oroboros O2k-Fluorespirometer (Oroboros, Innsbruck, Austria). The Oroboros O2k-Fluorespirometer was calibrated daily using the air calibration protocol on DatLab 7.4 (Oroboros, Innsbruck, Austria). Prior to each experiment requiring the fluorescence module, the AmpR calibration protocol from DatLab 7.4 was used to calibrate the fluorescence signal. Initial data analysis, including setting of marks, was performed using DatLab 7.4.
Complex I-bypass activity was assessed using HRR to measure O2 consumption. […] Values were exported and analyzed using GraphPad Prism 9. […]
Statistical analysis was performed using GraphPad Prism 9. […] RET Assay data were analyzed by 2-way ANOVA using a p-value of 0.05.
Using this assay, the ability of Compounds 1 to 4 and Vatiquinone to bypass rotenone-inhibited Complex I was determined. […] The ability of Compounds 1 to 4 and Vatiquinone to “bypass” Complex I and restore OXPHOS is measured by an increase in oxygen consumption rate following addition of the compound to the chamber.
In executing this assay, in each instance, fibroblasts are added to each chamber of the Oroboros Oxygraph-2K (the “O2k”). […] The addition of rotenone is expected to cause a marked reduction of OXPHOS as measured by a decreased rate of oxygen consumption. […]

[2] = system: Healthy (GM08402) fibroblasts; assay: RSL3 cytoprotection assay, healthy fibroblasts; type: cell-based, human; conditions: for anti-ferroptosis properties compared among test articles: 1 μM RSL3, 4 hours, FIG. 8
Protocol: (§1) Patient fibroblasts were acquired from Coriell Institute for Medical Research (Camden, NJ, USA). GM03672 is an untransformed fibroblast cell line from a Leigh syndrome patient carrying an unknown mutation. GM08402 is an untransformed fibroblast from an apparently healthy individual. Cells were cultured at 37° C. at 5% CO2 in Eagle's Minimum Essential Medium (MEM, Corning), which was supplemented with Earle's salts and non-essential amino acids, 15% qualified fetal bovine serum, and 1% penicillin/streptomycin ([…]) to yield “Complete MEM.”
(§2) To initiate the RSL3 cytoprotection experiment, Healthy (GM08402) and Leigh syndrome (GM03672) fibroblasts were resuspended in Complete MEM. Cells were seeded at 10,000 cells per well in a clear, tissue cultured-treated, 96-well plate and incubated at 37° C. overnight. Following the incubation, supernatant was manually aspirated, taking care not to disrupt cells. […]. Luminescence units were quantified by GEN5 software on a BioTek SYNERGY neo2 plate reader (LUM filter).
(§3) RSL3 is an inhibitor of the enzyme glutathione peroxidase 4 (GPX4), which decreases lipid peroxides. RSL3 inhibition of GPX4 induces ferroptosis through iron-dependent accumulation of lipid ROS. In this assay, Healthy or Leigh fibroblasts were treated for 4 hours with RSL3 to induce ferroptosis or left untreated. Endogenous ATP levels were measured as an indicator of cellular viability using a commercially available kit (CellTiter-Glo® 2.0 Cell Viability Assay (Promega)).
(§4) […]. […] Briefly, ferroptosis was induced with 1 μM RSL3 in healthy fibroblast cells and 375 nM RSL3 in fibroblasts from a patient with Leigh syndrome.
(§5) A preliminary experiment was performed to determine the effect of RSL3 injury on the fibroblasts of a healthy individual (cell line: GM08402) and the fibroblasts of a patient diagnosed with Leigh syndrome (cell line: GM03672).

[3] = system: Leigh syndrome (GM03672) fibroblasts; assay: RSL3 cytoprotection assay, Leigh fibroblasts; type: cell-based, human; conditions: for anti-ferroptosis properties compared among test articles: RSL3, 4 hours, FIG. 9
Protocol: as §1, §2, §3, §4, §5

15-lipoxygenase (15-LO) [4] = assay: 15(S)-HETE ELISA following RSL3 treatment, Leigh fibroblasts; type: cell-based, human; conditions: 700 nM RSL3, 1 μM compound, FIG. 11
Protocol: (§6) Samples for the 15(S)-HETE ELISA were generated by the RSL3 cytoprotection assay described above. Healthy or Leigh fibroblasts were resuspended in assay medium, seeded at 200,000 cells per well in a clear, tissue culture-treated, 24-well plate. Cells were incubated at 37° C. for 24 hours. Supernatant was aspirated from each well following the incubation.
(§7) Fibroblasts from both a healthy individual and a patient diagnosed with Leigh syndrome were examined (but not all compounds were examined in each cell type). Activation of ferroptosis has been implicated as a driver of epilepsy, which is commonly associated with Leigh syndrome. […] Kahn-Kirby et al. PLOS One. […] As a key regulator of ferroptosis, 15-LO serves as a rational therapeutic target in Leigh syndrome.

[5] = system: Healthy (GM08402) fibroblasts; assay: Erastin cytoprotection assay, healthy fibroblasts; type: cell-based, human; conditions: 2 μM erastin, 24 hours, FIG. 12
Protocol: (§8) Briefly, Healthy (GM08402) or Leigh (GM03672) fibroblasts were resuspended in assay medium, seeded at 10,000 cells per well in a clear, tissue cultured-treated, 96-well plate, and incubated at 37° C. overnight. Following the incubation, supernatant was manually aspirated from wells, taking care not to disrupt cells. Fibroblasts were co-treated in a final volume of 100 μL with 2 μM erastin (Millipore Corp., Cat #), 250 μM ferric ammonium citrate (FAC), 50 µM ascorbic acid (AA), and a titration of one of each of Compounds 1 to 4 or Vatiquinone ranging from 10 to 1000 nM. Following another 24-hour incubation at 37° C., cell viability was measured using the CellTiter-Glo Luminescent Cell Viability Kit (ProMega) per Manufacturer's instructions. Luminescence units were quantified by GEN5 software on a BioTek SYNERGY neo2 plate reader (LUM filter).
(§9) Briefly, erastin, like RSL3, is known to induce ferroptosis. […] Erastin was incubated with cell fibroblasts for 24 hours to induce ferroptosis. Cells were co-treated with each of Compounds 1 to 4, or Vatiquinone as the test articles. Test articles were administered at a range of concentrations to derive a curve. Cell viability was determined using a commercially available kit that measures ATP production. […] An increase in cell viability as determined by the assay is considered to be protective against ferroptosis.

[6] = system: Leigh (GM03672) fibroblasts; assay: Erastin cytoprotection assay, Leigh fibroblasts; type: cell-based, human; conditions: 2 μM erastin, 24 hours, FIG. 13
Protocol: as §8, §9

15-lipoxygenase (15-LO) [7] = assay: 15(S)-HETE ELISA following RSL3 treatment, healthy fibroblasts; type: cell-based, human; conditions: 700 nM RSL3, 1 μM compound, FIG. 10
Protocol: as §6, §7

15-lipoxygenase (15-LO) [8] = assay: 15(S)-HETE ELISA following erastin treatment, healthy fibroblasts; type: cell-based, human; conditions: erastin + FAC + AA, FIG. 14
Protocol: (§10) Samples for the 15(S)-HETE ELISA were generated by the Erastin Assay described above. Healthy or Leigh fibroblasts were resuspended in assay medium, seeded at 200,000 cells/well in a clear, tissue culture-treated, 24-well plate, and incubated at 37° C. for 24 hours. Supernatant was aspirated from each well.
(§11) Ferroptosis was induced using erastin at 2 μM concentration. 15(S)-HETE, which is a metabolite of arachidonic acid and generated by activity of 15-LO, was measured using a commercially available ELISA kit. Data were normalized to the “No treatment” group, which represented fibroblasts that were not injured with erastin.

15-lipoxygenase (15-LO) [9] = assay: 15(S)-HETE ELISA following erastin treatment, Leigh fibroblasts; type: cell-based, human; conditions: erastin + FAC + AA, FIG. 15
Protocol: as §10, §11

[10] = Pharmacokinetics of Compound 2 after single intravenous, subcutaneous or oral administration; type: in vivo; conditions: rat, 1 mg/kg IV, 10 mg/kg SC, 10 mg/kg PO
Protocol: • Animals: Rat/Sprague Dawley/Male/Naive 225-250 grams were received from an approved vendor. • Animals were fasted overnight prior to dose administration. Food was returned following the 2 hour sample collection. • Body weights were recorded prior to dose administration. The volume of each dose delivered (ml/kg) was based on each individual animal's body weight. • This was a single dose, serial blood collection study with tissues collected for possible future analysis. • Doses were administered in accordance with test facility standard operating procedures. […].
b) Sample collection—Post Dosing: • Blood samples were collected via jugular vein catheter (JVC) and transferred to tubes with appropriate anticoagulant. The tubes were stored on wet ice until processed to plasma by centrifugation (3500 rpm at 5° C. for 10 minutes) within 20 minutes of collection. Sample aliquots of 100 μL were transferred into individual uniquely labeled matrix tubes containing 10 μL of 5% (v/v) formic acid aqueous solution and stored at nominal −80° C. until analyzed by LC/MS/MS. • Immediately following final serial blood collection (24 hours, JVC), animals were sacrificed and perfused with cold PBS. […]

Row | Structure (SMILES) | oxygen consumption rate after rotenone inhibition [1] | anti-ferroptosis properties compared among test articles [2] | anti-ferroptosis properties compared among test articles [3] | 15-LO inhibition compared among test articles (15-lipoxygenase (15-LO) [4]) | protective effect compared among test articles [5] | protective effect compared among test articles [6] | inhibition of 15-lipoxygenase (15(S)-HETE in supernatant) (15-lipoxygenase (15-LO) [7]; 24 hours) | 15-lipoxygenase inhibition compared among test articles (15-lipoxygenase (15-LO) [7]) | 15-LO inhibition compared among test articles (15-lipoxygenase (15-LO) [8]) | 15-LO inhibition compared among test articles (15-lipoxygenase (15-LO) [9]) | tolerability [10] | delivery by mode of administration ([10]; preliminary) | concentration sufficient for 25-30% killing of cells ([2]; healthy fibroblasts, FIG. 7) [µM] | concentration sufficient for 25-30% killing of cells ([3]; Leigh fibroblasts, FIG. 7) [nM]
1 | COC1=C(OC)C(=O)C(CCCCCCCCCC(F)(F)F)=C(C)C1=O [Compound 1] | restored oxygen consumption rate in a dose-dependent manner | roughly equivalent | roughly equivalent | superior to Compounds 2, 3 and 4 | about equally protective | about equally protective | – | – | – | – | – | – | – | –
2 | CC1=C(C)C(=O)C(CC[C@@](C)(O)CC/C=C(\C)CCC=C(F)F)=C(C)C1=O [Compound 2] | – | superior to Compounds 1, 4 and Vatiquinone | superior to Compounds 1, 4 and Vatiquinone | roughly equivalent protective effect | superior in their protective effect | superior in their protective effect | inhibited 15-lipoxygenase | roughly equivalent protective effect | slightly less effective | slightly less effective | well tolerated | effectively administered | – | –
3 | COC(=O)c1ccc([C@H]2c3[nH]c4ccccc4c3C[C@H](C(=O)OC)N2C(=O)CCl)cc1 [RSL3, (1S,3R)-Methyl 2-(2-chloroacetyl)-2,3,4,9-tetrahydro-1-[4-(methoxycarbonyl)phenyl]-1H-pyrido[3,4-b]indole-3-carboxylate, reference compound] | – | – | – | – | – | – | – | – | – | – | – | – | 1 | 700
